Paper PMC8704944, “From Far West to East: Joining the Molecular Architecture of Imidazole-like Ligands in HO-1 Complexes” (Pharmaceuticals, 2021)
Several values for one entry are separate records, joined by “and”; a condition that tells them apart may be missing. Equal entries are not always repeated. Structures can show the parent of a compound that is named as a salt.

Test system: HO-1
Assay: not given
Conditions: representative inhibitor, printed in picture of Figure 1; cited from earlier work

Structure (SMILES)	IC50
FC(F)(F)c1ccc(SC[C@@H]2CO[C@@](CCc3ccc(Cl)cc3)(Cn3ccnc3)O2)nc1 [QC-80]	2.1 µM

Test system: not given
Assay: not given
Conditions: not given

Structure (SMILES)	melting point
COc1ccc2c(c1)cc(C(=O)NCCCn1ccnc1)n2C (as salt: hydrochloride) [Compound 4b, N-(3-(1H-Imidazol-1-yl)propyl)-5-methoxy-1-methyl-1H-indole-2-carboxamide]	121 to 122 °C
Cc1ccc2c(c1)cc(C(=O)NCCCn1ccnc1)n2C (as salt: hydrochloride) [Compound 4a, N-(3-(1H-Imidazol-1-yl)propyl)-1,5-dimethyl-1H-indole-2-carboxamide]	102 to 103 °C
O=C(NCCCn1ccnc1)c1cc2cc(OCc3ccccc3)ccc2[nH]1 [Compound 1, N-(3-(1H-Imidazol-1-yl)propyl)-5-(benzyloxy)-1H-indole-2-carboxamide]	204 to 206 °C
COc1ccc2c(c1)cc(C(=O)NCCCn1ccnc1)n2Cc1ccccc1 (as salt: hydrochloride) [Compound 8b, N-(3-(1H-Imidazol-1-yl)propyl)-1-benzyl-5-methoxy-1H-indole-2-carboxamide]	151 to 152 °C
COc1cc2cc(C(=O)NCCCn3ccnc3)n(Cc3ccccc3)c2cc1OC (as salt: hydrochloride) [Compound 8c, N-(3-(1H-Imidazol-1-yl)propyl)-1-benzyl-5,6-dimethoxy-1H-indole-2-carboxamide]	110 to 111 °C
COc1cc2cc(C(=O)NCCCn3ccnc3)n(C)c2cc1OC (as salt: hydrochloride) [Compound 4c, N-(3-(1H-Imidazol-1-yl)propyl)-5,6-dimethoxy-1-methyl-1H-indole-2-carboxamide]	146 to 147 °C
Cc1ccc2c(c1)cc(C(=O)NCCCn1ccnc1)n2Cc1ccccc1 (as salt: hydrochloride) [Compound 8a, N-(3-(1H-Imidazol-1-yl)propyl)-1-benzyl-5-methyl-1H-indole-2-carboxamide]	178 to 179 °C
Cn1c(C(=O)NCCCn2ccnc2)cc2cc(OCc3ccccc3)ccc21 (as salt: hydrochloride) [Compound 4d, N-(3-(1H-Imidazol-1-yl)propyl)-5-(benzyloxy)-1-methyl-1H-indole-2-carboxamide]	174 to 175 °C

Test system: HO-2
Assay: not given
Conditions: representative inhibitor, printed in picture of Figure 1; cited from earlier work

Structure (SMILES)	IC50
FC(F)(F)c1ccc(SC[C@@H]2CO[C@@](CCc3ccc(Cl)cc3)(Cn3ccnc3)O2)nc1 [QC-80]	16 µM

Biological target: T1, HO-1 (Rattus norvegicus, UniProt P06762)
T1 construct: Rat spleen microsomal fractions were chosen to isolate HO-1 in its most native form; from tissue; host or cells: rat spleen (male Sprague-Dawley), 100,000 g microsomal pellet
T1 sequence (P06762 1-289): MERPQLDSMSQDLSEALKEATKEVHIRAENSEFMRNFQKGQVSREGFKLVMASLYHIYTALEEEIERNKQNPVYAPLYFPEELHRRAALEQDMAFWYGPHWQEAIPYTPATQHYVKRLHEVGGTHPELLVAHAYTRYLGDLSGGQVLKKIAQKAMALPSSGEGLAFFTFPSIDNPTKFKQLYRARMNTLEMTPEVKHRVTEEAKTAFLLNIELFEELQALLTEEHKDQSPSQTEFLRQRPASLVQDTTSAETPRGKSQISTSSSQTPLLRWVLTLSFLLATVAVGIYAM
Assay: HO-1 enzymatic activity in the microsomal fraction of rat spleen (bilirubin formation)
Type: biochemical
Conditions: rat spleen microsomal fraction; mean ± SD of triplicate experiments
Experimental: The inhibitory potency of the novel compounds was evaluated reproducing in vitro the HO-1 catalytic cycle. Rat spleen microsomal fractions were chosen to isolate HO-1 in its most native form; indeed, it is well known that in basal conditions, HO-1 is highly expressed in spleen tissues. […] Among the three catabolites, bilirubin concentrations can easily be monitored spectrophotometrically; the lowest is the absorbance detected with the assay, and the highest is the potency of the putative inhibitor. Results obtained from the in vitro enzymatic assay are reported in Table 1, using Azalanstat as the reference compound.
Rat spleen microsomal fraction obtained by differential centrifugation, according to Ryter et al., was used as source of the HO-1 protein. As reported in the literature, HO-1 is abundant in the rat spleen. We chose this source because it represents the most native (i.e., closest to in vivo) form of HO-1. The experiments reported in the present paper complied with current Italian law and met the guidelines of the Institutional Animal Care and Use Committee of the Ministry of Health (Directorate-General for Animal Health and Veterinary Medicines, Italy) “Dosing of enzymatic activities in rat microsomes” (2018–2022), project code 02769.N.VLY. We used male albino rats of strain Sprague–Dawley (150 g body weight and age 45 d) to obtain spleen microsomal fraction. Rats had free access to water and were kept at room temperature with a natural photoperiod (12 h light–12 h dark cycle). Each rat was sacrificed, and their spleens were pooled and then homogenized in 50 mM Tris buffer, pH 7.4, containing 0.25 M sucrose, using a Potter–Elvehjem homogenizing system with a Teflon pestle. Rat spleen homogenate was centrifuged at 10,000× g for 20 min at 4 °C, and the supernatant was centrifuged at 100,000× g for 60 min at 4 °C. The 100,000 g pellet (microsomes) was resuspended in 100 mM potassium phosphate buffer, pH 7.8, containing MgCl2 2 mM. After measuring its protein concentration, the microsomal fraction was aliquoted and stored at −80 °C for up to 2 months.
Liver tissue was used to obtain biliverdin reductase. Liver tissue was homogenized on ice in 3 volumes of a solution 1.15% KCl w/v and Tris buffer 20 mM, pH 7.8. Rat liver homogenate was centrifuged at 10,000× g for 20 min at 4 °C, and the supernatant was centrifuged at 100,000× g for 1 h at 4 °C. The 100,000 g supernatant was aliquoted and stored at −80 °C after its protein concentration was measured.
Determination of HO-1 activity has been performed by measuring the bilirubin formation using the difference in absorbance at 464–530 nm as described by Ryter et al.. The incubation mixture contained the following in a final volume of 500 µL: 20 mM Tris–HCl, pH 7.4, (1 mg/mL) microsomal extract, 0.5–2 mg/mL biliverdin reductase, 1 mM NADPH, 2 mM glucose 6-phosphate (G6P), 1 U G6P dehydrogenase, 25 µM hemin, and 10 µL of DMSO (or the same volume of DMSO solution of test compounds to a final concentration of 100, 10, and 1 µM). Enzymatic reactions were carried out in the dark for 1 h at 37 °C in a circulating water bath. Then, 500 µL of chloroform was used to stop the reaction. The amount of bilirubin formed was measured in the chloroform phase, with a double-beam spectrophotometer as OD464–530 nm (extinction coefficient, 40 mM/cm for bilirubin). The enzymatic activity was defined as Units (one Unit is the amount of enzyme catalyzing the formation of 1 nmol of bilirubin/mg protein/h).

Structure (SMILES)	IC50	HO-1 IC50
Cc1ccc2c(c1)cc(C(=O)NCCCn1ccnc1)n2Cc1ccccc1 [Compound 8a, N-(3-(1H-Imidazol-1-yl)propyl)-1-benzyl-5-methyl-1H-indole-2-carboxamide]	2060 ± 412 µM	
COc1cc2cc(C(=O)NCCCn3ccnc3)n(C)c2cc1OC [Compound 4c, N-(3-(1H-Imidazol-1-yl)propyl)-5,6-dimethoxy-1-methyl-1H-indole-2-carboxamide]	55.5 ± 3.82 µM	
O=C(NCCCn1ccnc1)c1cc2cc(OCc3ccccc3)ccc2[nH]1 [Compound 1, N-(3-(1H-Imidazol-1-yl)propyl)-5-(benzyloxy)-1H-indole-2-carboxamide]	89.6 ± 6.1 µM	
Cc1ccc2c(c1)cc(C(=O)NCCCn1ccnc1)n2C [Compound 4a, N-(3-(1H-Imidazol-1-yl)propyl)-1,5-dimethyl-1H-indole-2-carboxamide]	367 ± 34.5 µM	
COc1cc2cc(C(=O)NCCCn3ccnc3)n(Cc3ccccc3)c2cc1OC [Compound 8c, N-(3-(1H-Imidazol-1-yl)propyl)-1-benzyl-5,6-dimethoxy-1H-indole-2-carboxamide]	81 ± 4.65 µM	
Cn1c(C(=O)NCCCn2ccnc2)cc2cc(OCc3ccccc3)ccc21 [Compound 4d, N-(3-(1H-Imidazol-1-yl)propyl)-5-(benzyloxy)-1-methyl-1H-indole-2-carboxamide]	1.03 ± 0.13 µM	low micromolar range
COc1ccc2c(c1)cc(C(=O)NCCCn1ccnc1)n2C [Compound 4b, N-(3-(1H-Imidazol-1-yl)propyl)-5-methoxy-1-methyl-1H-indole-2-carboxamide]	> 100 µM and 113 µM	
COc1ccc2c(c1)cc(C(=O)NCCCn1ccnc1)n2Cc1ccccc1 [Compound 8b, N-(3-(1H-Imidazol-1-yl)propyl)-1-benzyl-5-methoxy-1H-indole-2-carboxamide]	> 100 µM and 349 µM	

Same assay, conditions: versus compound 1

Structure (SMILES)	fold more potent than parent compound 1 (HO-1 IC50)
Cn1c(C(=O)NCCCn2ccnc2)cc2cc(OCc3ccccc3)ccc21 [Compound 4d, N-(3-(1H-Imidazol-1-yl)propyl)-5-(benzyloxy)-1-methyl-1H-indole-2-carboxamide]	87 fold
